According to patent US12479847B2 (DANA-FARBER CANCER INSTITUTE, INC., priority 2019, dated 2025):
Like-named read-outs stand apart in the source and are kept apart here.

Molecular target: human LRRK2 kinase (Homo sapiens, UniProt Q5S007)
Details: ATP 10 μM, 60 minutes at 25° C.

Chain of human LRRK2 kinase (Q5S007 whole entry): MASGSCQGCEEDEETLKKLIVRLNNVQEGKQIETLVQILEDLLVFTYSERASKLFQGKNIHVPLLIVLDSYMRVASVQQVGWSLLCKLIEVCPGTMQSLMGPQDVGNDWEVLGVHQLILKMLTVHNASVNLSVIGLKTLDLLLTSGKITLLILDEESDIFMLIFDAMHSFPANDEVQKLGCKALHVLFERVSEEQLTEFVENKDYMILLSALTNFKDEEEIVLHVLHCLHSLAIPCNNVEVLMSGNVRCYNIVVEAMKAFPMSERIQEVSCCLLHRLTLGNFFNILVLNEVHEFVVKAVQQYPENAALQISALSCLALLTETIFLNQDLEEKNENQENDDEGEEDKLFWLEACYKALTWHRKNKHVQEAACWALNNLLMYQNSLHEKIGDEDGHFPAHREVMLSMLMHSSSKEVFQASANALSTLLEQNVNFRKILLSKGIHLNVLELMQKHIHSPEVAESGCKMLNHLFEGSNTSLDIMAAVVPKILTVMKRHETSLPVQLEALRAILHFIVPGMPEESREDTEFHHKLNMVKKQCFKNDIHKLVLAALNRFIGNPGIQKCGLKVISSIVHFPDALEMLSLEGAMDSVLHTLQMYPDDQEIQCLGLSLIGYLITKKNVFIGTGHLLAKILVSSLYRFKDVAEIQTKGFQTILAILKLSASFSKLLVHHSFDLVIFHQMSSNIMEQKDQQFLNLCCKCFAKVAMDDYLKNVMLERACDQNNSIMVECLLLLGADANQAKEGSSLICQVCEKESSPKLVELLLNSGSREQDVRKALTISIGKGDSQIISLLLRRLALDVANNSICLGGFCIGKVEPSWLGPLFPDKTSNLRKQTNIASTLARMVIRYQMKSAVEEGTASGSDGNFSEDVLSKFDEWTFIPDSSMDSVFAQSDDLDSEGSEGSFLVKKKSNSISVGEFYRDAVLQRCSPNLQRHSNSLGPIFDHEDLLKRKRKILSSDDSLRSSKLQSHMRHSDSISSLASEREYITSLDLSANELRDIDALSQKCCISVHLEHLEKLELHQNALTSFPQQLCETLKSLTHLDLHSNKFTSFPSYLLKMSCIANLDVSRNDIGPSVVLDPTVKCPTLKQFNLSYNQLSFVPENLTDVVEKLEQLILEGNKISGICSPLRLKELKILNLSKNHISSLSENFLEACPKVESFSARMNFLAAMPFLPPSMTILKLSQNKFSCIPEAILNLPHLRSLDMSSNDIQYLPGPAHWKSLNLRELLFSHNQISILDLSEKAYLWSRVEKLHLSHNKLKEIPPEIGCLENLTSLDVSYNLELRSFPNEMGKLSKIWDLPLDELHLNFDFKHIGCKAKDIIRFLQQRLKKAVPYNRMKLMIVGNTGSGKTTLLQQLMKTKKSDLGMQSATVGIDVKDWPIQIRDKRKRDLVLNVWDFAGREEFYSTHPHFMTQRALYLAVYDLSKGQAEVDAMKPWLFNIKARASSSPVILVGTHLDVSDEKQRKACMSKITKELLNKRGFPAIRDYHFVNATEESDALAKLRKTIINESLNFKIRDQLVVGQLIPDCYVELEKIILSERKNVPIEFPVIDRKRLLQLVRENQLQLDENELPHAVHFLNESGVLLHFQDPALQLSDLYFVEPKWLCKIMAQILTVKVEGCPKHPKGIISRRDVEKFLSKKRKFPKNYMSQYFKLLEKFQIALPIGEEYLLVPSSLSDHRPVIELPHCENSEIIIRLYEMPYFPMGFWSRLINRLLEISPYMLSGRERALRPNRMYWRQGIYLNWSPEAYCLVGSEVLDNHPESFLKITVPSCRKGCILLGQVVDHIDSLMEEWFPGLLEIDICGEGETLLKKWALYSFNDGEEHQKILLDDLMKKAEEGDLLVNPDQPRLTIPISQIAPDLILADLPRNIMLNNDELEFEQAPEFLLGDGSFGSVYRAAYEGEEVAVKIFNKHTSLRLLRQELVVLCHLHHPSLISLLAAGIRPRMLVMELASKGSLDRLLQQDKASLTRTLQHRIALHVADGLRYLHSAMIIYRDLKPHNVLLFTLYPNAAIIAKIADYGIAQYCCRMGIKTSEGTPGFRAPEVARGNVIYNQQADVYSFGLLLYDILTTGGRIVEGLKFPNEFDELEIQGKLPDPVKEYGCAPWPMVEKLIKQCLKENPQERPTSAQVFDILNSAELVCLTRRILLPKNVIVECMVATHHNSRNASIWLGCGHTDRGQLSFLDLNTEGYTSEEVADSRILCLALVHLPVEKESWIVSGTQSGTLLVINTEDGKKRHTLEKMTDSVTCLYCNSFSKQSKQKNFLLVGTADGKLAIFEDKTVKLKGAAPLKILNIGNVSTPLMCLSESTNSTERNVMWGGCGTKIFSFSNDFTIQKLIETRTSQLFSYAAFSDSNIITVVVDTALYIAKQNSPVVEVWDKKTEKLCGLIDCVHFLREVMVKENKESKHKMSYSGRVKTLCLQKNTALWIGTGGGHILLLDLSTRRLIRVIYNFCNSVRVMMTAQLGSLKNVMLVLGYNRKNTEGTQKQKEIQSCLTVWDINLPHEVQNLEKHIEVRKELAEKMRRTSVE

SMILES | IC50 (LRRK2, ADP-Glo) [nM] | IC50 (read-out: LRRK2, ADP-Glo) [nM]
O=C(c1ccc(Nc2nc(NC3CCC3)c3c(Cl)c[nH]c3n2)c2c1OCCO2)N1CCC(N2CCOCC2)CC1 [Compound 4, (8-((5-chloro-4-(cyclobutylamino)-7H-pyrrolo[2,3-d]pyrimidin-2-yl)amino)-2,3-dihydrobenzo[b][1,4]dioxin-5-yl)(4-morpholinopiperidin-1-yl)methanone] | < 10 | –
CNc1nc(Nc2ccc(C(=O)N3CCC(N4CCOCC4)CC3)c3c2OCCO3)nc2[nH]cc(Cl)c12 [Compound 10, (8-((5-chloro-4-(methylamino)-7H-pyrrolo[2,3-d]pyrimidin-2-yl)amino)-2,3-dihydrobenzo[b][1,4]dioxin-5-yl)(4-morpholinopiperidin-1-yl)methanone] | < 10 | –
COCCNc1nc(Nc2ccc(S(C)(=O)=O)cc2OC)nc2[nH]cc(Cl)c12 [Compound 23, 5-chloro-N2-(2-methoxy-4-(methylsulfonyl)phenyl)-N4-(2-methoxyethyl)-7H-pyrrolo[2,3-d]pyrimidine-2,4-diamine] | < 10 | –
COc1cc(S(=O)(=O)N2CCOCC2)ccc1Nc1nc(NC2CCC2)c2c(Cl)c[nH]c2n1 [Compound 7, 5-chloro-N4-cyclobutyl-N2-(2-methoxy-4-(morpholinosulfonyl)phenyl)-7H-pyrrolo[2,3-d]pyrimidine-2,4-diamine] | 100 to 1000 | –
CCCNc1nc(Nc2ccc(S(=O)(=O)N3CCOCC3)cc2OC)nc2[nH]cc(Cl)c12 [Compound 18, 5-chloro-N2-(2-methoxy-4-(morpholinosulfonyl)phenyl)-N4-propyl-7H-pyrrolo[2,3-d]pyrimidine-2,4-diamine] | 100 to 1000 | –
O=C(c1ccc(Nc2nc(NC3CCCCC3)c3c(Cl)c[nH]c3n2)c2c1CCO2)N1CCOCC1 [Compound 83, (7-((5-chloro-4-(cyclohexylamino)-7H-pyrrolo[2,3-d]pyrimidin-2-yl)amino)-2,3-dihydrobenzofuran-4-yl)(morpholino)methanone] | 100 to 1000 | –
O=C(c1ccc(Nc2nc(NC3CCCCC3)c3c(Cl)c[nH]c3n2)c2c1CCO2)N1CCC(N2CCOCC2)CC1 [Compound 80, (7-((5-chloro-4-(cyclohexylamino)-7H-pyrrolo[2,3-d]pyrimidin-2-yl)amino)-2,3-dihydrobenzofuran-4-yl)(4-morpholinopiperidin-1-yl)methanone] | 100 to 1000 | –
COc1cc(P2(=O)CCN(C(C)=O)CC2)ccc1Nc1nc(NC2CC2)c2c(Cl)c[nH]c2n1 [Compound 91, 1-(4-(4-((5-chloro-4-(cyclopropylamino)-7H-pyrrolo[2,3-d]pyrimidin-2-yl)amino)-3-methoxyphenyl)-4-oxido-1,4-azaphosphinan-1-yl)ethan-1-one] | < 10 | –
CCNc1nc(Nc2ccc(C(=O)N3CCOCC3)c3c2OCC3)nc2[nH]cc(Cl)c12 [Compound 101, (7-((5-chloro-4-(ethylamino)-7H-pyrrolo[2,3-d]pyrimidin-2-yl)amino)-2,3-dihydrobenzofuran-4-yl)(morpholino)methanone] | < 10 | –
CC[C@@H](C)Nc1nc(Nc2ccc(S(=O)(=O)N3CCC(N4CCOCC4)CC3)cc2OC)nc2[nH]cc(Cl)c12 [Compound 48, (R)—N4-(sec-butyl)-5-chloro-N2-(2-methoxy-4-((4-morpholinopiperidin-1-yl)sulfonyl)phenyl)-7H-pyrrolo[2,3-d]pyrimidine-2,4-diamine] | 100 to 1000 | –
CCCNc1nc(Nc2ccc(P3(=O)CCN(C4CC4)CC3)cc2OC)nc2[nH]cc(Cl)c12 [Compound 99, 4-(4-((5-chloro-4-(propylamino)-7H-pyrrolo[2,3-d]pyrimidin-2-yl)amino)-3-methoxyphenyl)-1-cyclopropyl-1,4-azaphosphinane 4-oxide] | 10 to 100 | –
CCCNc1nc(Nc2ccc(C(=O)N3CCC(N4CCOCC4)CC3)c3c2OCC3)nc2[nH]cc(Cl)c12 [Compound 102, (7-((5-chloro-4-(propylamino)-7H-pyrrolo[2,3-d]pyrimidin-2-yl)amino)-2,3-dihydrobenzofuran-4-yl)(4-morpholinopiperidin-1-yl)methanone] | 10 to 100 | –
COc1cc(P2(=O)CCN(C3CC3)CC2)ccc1Nc1nc(NC2CCCCC2)c2c(Cl)c[nH]c2n1 [Compound 93, 4-(4-((5-chloro-4-(cyclohexylamino)-7H-pyrrolo[2,3-d]pyrimidin-2-yl)amino)-3-methoxyphenyl)-1-cyclopropyl-1,4-azaphosphinane 4-oxide] | 100 to 1000 | –
COCCNc1nc(Nc2ccc(S(=O)(=O)N3CCC(N4CCOCC4)CC3)cc2OC)nc2[nH]cc(Cl)c12 [Compound 22, 5-chloro-N2-(2-methoxy-4-((4-morpholinopiperidin-1-yl)sulfonyl)phenyl)-N4-(2-methoxyethyl)-7H-pyrrolo[2,3-d]pyrimidine-2,4-diamine] | < 10 | –
COc1cc(S(C)(=O)=O)ccc1Nc1nc(NC2CCOCC2)c2c(Cl)c[nH]c2n1 [Compound 63, 5-chloro-N2-(2-methoxy-4-(methylsulfonyl)phenyl)-N4-(tetrahydro-2H-pyran-4-yl)-7H-pyrrolo[2,3-d]pyrimidine-2,4-diamine] | 10 to 100 | –
COc1cc(S(=O)(=O)N2CCOCC2)ccc1Nc1nc(NCCS(C)(=O)=O)c2c(Cl)c[nH]c2n1 [Compound 68, 5-chloro-N2-(2-methoxy-4-(morpholinosulfonyl)phenyl)-N4-(2-(methylsulfonyl)ethyl)-7H-pyrrolo[2,3-d]pyrimidine-2,4-diamine] | 10 to 100 | –

Second part, the molecule after the results:

IC50 (LRRK2, ADP-Glo) [nM] | IC50 (read-out: LRRK2, ADP-Glo) [nM] | SMILES
10 to 100 | – | CNc1nc(Nc2ccc(P3(=O)CCN(C4CC4)CC3)cc2OC)nc2[nH]cc(Cl)c12 [Compound 85, 4-(4-((5-chloro-4-(methylamino)-7H-pyrrolo[2,3-d]pyrimidin-2-yl)amino)-3-methoxyphenyl)-1-cyclopropyl-1,4-azaphosphinane 4-oxide]
10 to 100 | – | CCCNc1nc(Nc2ccc(C(=O)N3CCOCC3)c3c2OCCO3)nc2[nH]cc(Cl)c12 [Compound 20, (8-((5-chloro-4-(propylamino)-7H-pyrrolo[2,3-d]pyrimidin-2-yl)amino)-2,3-dihydrobenzo[b][1,4]dioxin-5-yl)(morpholino)methanone]
10 to 100 | – | COc1cc(P2(=O)CCN(C3CC3)CC2)ccc1Nc1nc(NC2CCCC2)c2c(Cl)c[nH]c2n1 [Compound 78, 4-(4-((5-chloro-4-(cyclopentylamino)-7H-pyrrolo[2,3-d]pyrimidin-2-yl)amino)-3-methoxyphenyl)-1-cyclopropyl-1,4-azaphosphinane 4-oxide]
100 to 1000 | – | CC[C@@H](C)Nc1nc(Nc2ccc(S(=O)(=O)N3CCOCC3)cc2OC)nc2[nH]cc(Cl)c12 [Compound 47, (R)—N4-(sec-butyl)-5-chloro-N2-(2-methoxy-4-(morpholinosulfonyl)phenyl)-7H-pyrrolo[2,3-d]pyrimidine-2,4-diamine]
< 10 | – | O=C(c1ccc(Nc2nc(N[C@H]3CCOC3)c3c(Cl)c[nH]c3n2)c2c1OCCO2)N1CCOCC1 [Compound 95]
< 10 | – | O=C(c1ccc(Nc2nc(NC3CC3)c3c(Cl)c[nH]c3n2)c2c1OCCO2)N1CCOCC1 [Compound 27, (8-((5-chloro-4-(cyclopropylamino)-7H-pyrrolo[2,3-d]pyrimidin-2-yl)amino)-2,3-dihydrobenzo[b][1,4]dioxin-5-yl)(morpholino)methanone]
< 10 | – | COc1cc(S(=O)(=O)N2CCC(N3CCOCC3)CC2)ccc1Nc1nc(NCCS(C)(=O)=O)c2c(Cl)c[nH]c2n1 [Compound 69, 5-chloro-N2-(2-methoxy-4-((4-morpholinopiperidin-1-yl)sulfonyl)phenyl)-N4-(2-(methylsulfonyl)ethyl)-7H-pyrrolo[2,3-d]pyrimidine-2,4-diamine]
10 to 100 | – | CCC(C)Nc1nc(Nc2ccc(S(=O)(=O)N3CCC(N4CCOCC4)CC3)cc2OC)nc2[nH]cc(Cl)c12 (stereo in doubt) [Compound 52, (S)—N4-(sec-butyl)-5-chloro-N2-(2-methoxy-4-((4-morpholinopiperidin-1-yl)sulfonyl)phenyl)-7H-pyrrolo[2,3-d]pyrimidine-2,4-diamine]
– | 100 to 1000 | CCC(C)Nc1nc(Nc2ccc(S(=O)(=O)N3CCOCC3)cc2OC)nc2[nH]cc(Cl)c12 (stereo in doubt) [Compound 51, (S)—N4-(sec-butyl)-5-chloro-N2-(2-methoxy-4-(morpholinosulfonyl)phenyl)-7H-pyrrolo[2,3-d]pyrimidine-2,4-diamine]
10 to 100 | – | CCNc1nc(Nc2ccc(S(C)(=O)=O)cc2OC)nc2[nH]cc(Cl)c12 [Compound 16, 5-chloro-N4-ethyl-N2-(2-methoxy-4-(methylsulfonyl)phenyl)-7H-pyrrolo[2,3-d]pyrimidine-2,4-diamine]
10 to 100 | – | CCCCNc1nc(Nc2ccc(S(=O)(=O)N3CCC(N4CCOCC4)CC3)cc2OC)nc2[nH]cc(Cl)c12 [Compound 72, N4-butyl-5-chloro-N2-(2-methoxy-4-((4-morpholinopiperidin-1-yl)sulfonyl)phenyl)-7H-pyrrolo[2,3-d]pyrimidine-2,4-diamine]
< 10 | – | CC[C@@H](C)Nc1nc(Nc2ccc(C(=O)N3CCOCC3)c3c2OCCO3)nc2[nH]cc(Cl)c12 [Compound 50, (R)-(8-((4-(sec-butylamino)-5-chloro-7H-pyrrolo[2,3-d]pyrimidin-2-yl)amino)-2,3-dihydrobenzo[b][1,4]dioxin-5-yl)(morpholino)methanone]
< 10 | – | COc1cc(S(=O)(=O)N2CCC(N3CCOCC3)CC2)ccc1Nc1nc(NC2CC2)c2c(Cl)c[nH]c2n1 [Compound 25, 5-chloro-N4-cyclopropyl-N2-(2-methoxy-4-((4-morpholinopiperidin-1-yl)sulfonyl)phenyl)-7H-pyrrolo[2,3-d]pyrimidine-2,4-diamine]
10 to 100 | – | CCCCNc1nc(Nc2ccc(S(C)(=O)=O)cc2OC)nc2[nH]cc(Cl)c12 [Compound 73, N4-butyl-5-chloro-N2-(2-methoxy-4-(methylsulfonyl)phenyl)-7H-pyrrolo[2,3-d]pyrimidine-2,4-diamine]
10 to 100 | – | COc1cc(S(C)(=O)=O)ccc1Nc1nc(NCC2CC2)c2c(Cl)c[nH]c2n1 [Compound 64, 5-chloro-N4-(cyclopropylmethyl)-N2-(2-methoxy-4-(methylsulfonyl)phenyl)-7H-pyrrolo[2,3-d]pyrimidine-2,4-diamine]
